Measured values as given in PubChem BioAssay (NCI).
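The compound was tested at five concentrations on cells cultured in 96-well plates, with a 48-hour exposure period. GI50 = concentration required for 50% inhibition of growth. TGI is the concentration that stops growth completely.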

What was measured:
Test in all cases: NCI anticancer screen, dose series, 48 h
OVCAR-4 ovarian = tested on: OVCAR-4 ovarian
RPMI-8226 leukemia = tested on: RPMI-8226 leukemia
TK-10 renal = tested on: TK-10 renal
OVCAR-3 ovarian = tested on: OVCAR-3 ovarian
SK-MEL-28 melanoma = tested on: SK-MEL-28 melanoma
KM12 colon = tested on: KM12 colon
SK-OV-3 ovarian = tested on: SK-OV-3 ovarian
SF-268 CNS = tested on: SF-268 CNS
MALME-3M melanoma = tested on: MALME-3M melanoma
MCF7 breast = tested on: MCF7 breast

SMILES | TGI (OVCAR-4 ovarian) | TGI (RPMI-8226 leukemia) | TGI (TK-10 renal) | TGI (OVCAR-3 ovarian) | TGI (SK-MEL-28 melanoma) | TGI (KM12 colon) | TGI (SK-OV-3 ovarian) | TGI (SF-268 CNS) | TGI (MALME-3M melanoma) | TGI (MCF7 breast) | GI50 (TK-10 renal) | GI50 (OVCAR-3 ovarian) | GI50 (SK-MEL-28 melanoma) | GI50 (MCF7 breast) | GI50 (KM12 colon) | GI50 (SF-268 CNS)
Cn1cnc([N+](=O)[O-])c1Sc1nc2ccc([N+](=O)[O-])cc2[nH]1 | > 100 µM | 67.5 µM | 59.3 µM | > 100 µM | 37.6 µM | > 100 µM | 62.5 µM | 53.1 µM |  |  |  |  |  |  |  | 
O=C(O)COc1ccc(C(=O)/C(SS/C(C(=O)c2ccc(OCC(=O)O)c(Cl)c2Cl)=C2\C=C(c3ccccc3Cl)SS2)=C2/C=C(c3ccccc3Cl)SS2)c(Cl)c1Cl | 57.1 µM | 42.5 µM | > 95.7 µM | 53 µM | > 100 µM | > 71.4 µM | > 100 µM | > 88.3 µM | > 100 µM |  |  |  |  |  |  | 
C=C1C(=O)C2(C)OC2(C)C1C(=O)O (stereo not drawn) | > 100 µM | > 100 µM | > 100 µM | > 100 µM | > 100 µM | > 100 µM | > 100 µM | > 100 µM |  | > 100 µM |  |  |  |  |  | 
c1ccc2c(c1)N=C(c1ccc3ccccc3c1)CC(c1cccc3ccccc13)S2 (stereo not drawn) | > 100 µM | 52.5 µM | > 100 µM | > 100 µM | > 100 µM | > 100 µM | > 100 µM | > 100 µM | > 100 µM |  |  |  |  |  |  | 
Nc1nc2ncn(CC(O)COC(=O)c3ccccc3)c2c(=O)[nH]1 (stereo not drawn) | > 100 µM | > 100 µM | > 100 µM | > 100 µM | > 100 µM | > 100 µM | > 100 µM | > 100 µM | > 100 µM |  |  |  |  |  |  | 
O=C1N=C(Nc2nc(-c3csc(NC4=NC(=O)/C(=C\c5ccc(Cl)cc5)S4)n3)cs2)S/C1=C/c1ccc(Cl)cc1 |  |  | 25.6 µM | 37.3 µM | > 50 µM | 35.6 µM |  | > 50 µM |  | > 50 µM | 8.44 µM | 10.5 µM | 42.8 µM | 3.97 µM | 10.1 µM | 8.29 µM
NC(=O)c1ncn(Cc2ccccc2)c1CNC(N)=S | > 100 µM | > 100 µM | > 100 µM | > 100 µM | > 100 µM | > 100 µM | > 100 µM | > 100 µM |  |  |  |  |  |  |  | 
CCCCCCCCCCCC(=O)OC(COC(N)=O)COc1ccc(Cl)cc1 (stereo not drawn) | 40.9 µM | 47 µM | > 100 µM | 31.6 µM | 36.2 µM | 61.1 µM | > 100 µM | 42.5 µM | 48.3 µM |  |  |  |  |  |  | 
